Measurements reported in ChEMBL document CHEMBL1130980, “Novel antiproliferative falcarindiol furanocoumarin ethers from the root of Angelica japonica” (1998).
Converted amounts (≈) assume the structure as drawn.

Test: Inhibitory activity in MTT assay against MK-I cell
Format: functional
Conditions: Homo sapiens, read-out: ED50 (the source's name)

Row | SMILES | EC50 [µg/mL]
1 | C=CC(O)C#CC#C[C@@H](O)/C=C\CCCCCCC (single isomer, unassigned) [FALCARINDIOL] | 3.2 (≈ 12.3 µM)
2 | C=C[C@H](O)C#CC#CC(/C=C\CCCCCCC)OC(C)=O (some centres undefined) | 3.2 (≈ 10.6 µM)
3 | C=CC(O)C#CC#CC(O)/C=C\C(O)CCCCCC (centres undefined) | 2.2 (≈ 7.96 µM)
4 | C=C[C@H](O)C#CC#CC/C=C\CCCCCCC [FALCARINOL] | 0.3 (≈ 1.23 µM)
